Results reported in patent publication US20070203066A1, “Compositions and methods for inhibiting cellular proliferation” (priority 2005, published 2007).
Read-outs that look alike come from different tables or passages of the source. Non-standard residues stand in square brackets, D forms with d. Primed or numbered codes have the meaning given here. No end group written: not given here. Ida(3) = iminodiacetic acid linker, Lys side-chain amines bound to its two carboxyl groups; Ida(4) = iminodiacetic acid linker (dimerization linker bound to lysine side chain); Ida″ = iminodiacetic acid linker bound to the Lys side-chain amine, forming a dimer; Phg = N[C@H](C(=O)O)c1ccccc1; acyl = not defined here; Ahx = NCCCCCC(=O)O

Tested on: HUVECs
Assay type: cell-based
How it was run: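 HUVECs seeded at 5,000 cells/well in EBM with 2% FCS, adhered ≥12 hours, then stimulated with bFGF 10 ng/ml or VEGF 5 ng/ml plus varying peptide concentrations. After 48 hours at 37 ° C, 5% CO2, proliferation inhibition read by BrdU incorporation.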

[1] = HUVEC proliferation, bFGF at 10 ng/ml or VEGF at 5 ng/ml, 48 hours, BrdU incorporation, read-out: IC50 on HUVECs

With “27 (Ac-RTRRRRRRQRVRIAYEEIFVRNM[Ahx]K; not fully specified) [compound 27]” the IC50 [1] was 10 to 30 µM.

“177 (Ac-RRRRAQRVRIIF; also: homodimer via C-terminal Lys linker) [compound 177]” showed an IC50 [1] of less than 10 µM.

With “271 (Ac-ARRRRQRVAIYF; also: homodimer via Lys linker, Phe C-termini bound to the two Lys amino groups) [compound 271]” the IC50 [1] was less than 10 µM.

Compound “360 (Ac-RRRHRQHVHIYFK(Ida(3))-NH2; also: homodimer via Ida linker on Lys13 side chain, Boc on Ida amine) [compound 360]” has an IC50 [1] of less than 10 µM.

Compound `CC[C@H](C)[C@H](NC(=O)[C@H](C)NC(=O)[C@@H](NC(=O)[C@H](CCCNC(=N)N)NC(=O)[C@H](CCC(N)=O)NC(=O)[C@H](CCCNC(=N)N)NC(=O)[C@H](CCCNC(=N)N)NC(=O)[C@H](CCCNC(=N)N)NC(=O)[C@H](CCCNC(=N)N)NC(=O)[C@H](C)NC(C)=O)C(C)C)C(=O)N[C@@H](Cc1ccc(O)cc1)C(=O)N[C@@H](Cc1ccccc1)C(=O)N[C@@H](CCCCNC(=O)CN(CC(=O)NCCCC[C@H](NC(=O)[C@H](Cc1ccccc1)NC(=O)[C@H](Cc1ccc(O)cc1)NC(=O)[C@@H](NC(=O)[C@H](C)NC(=O)[C@@H](NC(=O)[C@H](CCCNC(=N)N)NC(=O)[C@H](CCC(N)=O)NC(=O)[C@H](CCCNC(=N)N)NC(=O)[C@H](CCCNC(=N)N)NC(=O)[C@H](CCCNC(=N)N)NC(=O)[C@H](CCCNC(=N)N)NC(=O)[C@H](C)NC(C)=O)C(C)C)[C@@H](C)CC)C(N)=O)C(=O)CCNC(=O)OC(C)(C)C)C(N)=O` [Peptide 228] has an IC50 (48 h) of less than 10 µM.

In the case of “NKRKKQRVKIIFVKVFIIKVRQKKRKN [compound 151]”, the IC50 [1] is reported as less than 10 µM.

Compound “330 (XRRHRQHVRIYFK; not fully specified; Xaa = Acylated Histidine; The side chain of Lysine at position 13 is covalently bound to an Ida linker forming a homodimer of residues 1 through 13.) [compound 330]” has an IC50 [1] of less than 10 µM.

“210 (Ac-RRRRAQRVAIIF; also: dimer: Phe C-termini joined via Lys linker) [compound 210]” gave an IC50 [1] of less than 10 µM.

For “241 (Ac-RRHRHQRVRIIF; also: dimer via C-terminal Phe to Lys linker) [compound 241]”, the IC50 [1] was less than 10 µM.

“491 (Ac-PRRRRQPVAIK(Ida″)F; also: homodimer via Ida linker on Lys11 side chain) [compound 491]” was tested, and the IC50 [1] was 10 to 30 µM.

With “400 (Ac-DRRRRQAVAIYFK; not fully specified (residue 13, C-terminus); also: homodimer of residues 1-13 via Ida linker at Lys13 side chain) [compound 400]” the IC50 [1] was less than 10 µM.

“353 (Ac-ARRRRQRVAIYYK-NH2; not fully specified (residue 13); also: homodimer of residues 1-13 via Ida linker on K13 side chain) [compound 353]” showed an IC50 [1] greater than 30 µM.

Work on “212 (Ac-AARRRQRVAIIF; also: dimer: Phe C-termini joined via Lys linker) [compound 212]” yielded an IC50 [1] greater than 30 µM.

KRKRKKQRVKIIF [compound 81] gave an IC50 [1] of 10 to 30 µM.

“206 (Ac-RRRAAQRVRIIF; also: dimer: Phe C-termini joined via Lys linker) [compound 206]” showed an IC50 [1] of less than 10 µM.

“505 (Ac-PRRYRQAVAIYFK; not fully specified (residue 13, C-terminus); also: homodimer via Ida linker on Lys13 side chain) [compound 505]” gave an IC50 [1] of less than 10 µM.

Work on “365 (Ac-ARRRRQRVATYFK-NH2; not fully specified (residue 13); also: homodimer of residues 1-13 via Ida linker on K13 side chain) [compound 365]” yielded an IC50 [1] greater than 30 µM.

“207 (Ac-RRRARQAVRIIF; also: dimer: Phe C-termini joined via Lys linker) [compound 207]” was tested, and the IC50 [1] was less than 10 µM.

Compound KTKRKRKAQRVKIIFVQNM [compound 116] has an IC50 [1] of less than 10 µM.

Work on KTKRKRKKQRVKEIFVQNM [compound 32] yielded an IC50 [1] greater than 30 µM.

For “426 (Ac-ARRRRQYVAIYFK; not fully specified (residue 13, C-terminus); also: homodimer of residues 1-13 via Ida linker on Lys13 side chain) [compound 426]”, the IC50 [1] was less than 10 µM.

Work on RKRKKQRVKIAYEEIFV [compound 62] yielded an IC50 [1] greater than 30 µM.

In the case of KRKRKKQQRVKIAYEEIFV [compound 75], the IC50 [1] is reported as 10 to 30 µM.

For “172 (acyl-KRRRRRQRVRIIF; not fully specified (residue 1); reading uncertain; also: homodimer via Ida-PEG 20 kDa linker on Lys1 side chains, acyl group not given here) [compound 172]”, the IC50 [1] was less than 10 µM.

In the case of “476 (Ac-PRRRPQAVAIYFK(Ida(3)); not fully specified (C-terminus); also: homodimer via Ida linker on Lys13 side chain) [compound 476]”, the IC50 [1] is reported as less than 10 µM.

In the case of “339 (Ac-RRHHRQHVRIYFK(Ida(3))-NH2; also: homodimer via Lys13 side chain, Ida linker (Ida amino group Boc)) [compound 339]”, the IC50 [1] is reported as less than 10 µM.

KTKRKRKKQRVKIAYEEIFVKNM [compound 5] gave an IC50 [1] of less than 10 µM.

KRKKQRVKIAYEEIFV [compound 63] was tested, and the IC50 [1] was less than 10 µM.

Work on “235 (Ac-RHHRRQRVRIIF; also: dimer via C-terminal Phe to Lys linker) [compound 235]” yielded an IC50 [1] of less than 10 µM.

In the case of “507 (Ac-RGDSPGGARRRRQRVAIYFK; also: homodimer via Ida linker on Lys20 side chain) [compound 507]”, the IC50 [1] is reported as less than 10 µM.

With “370 (Ac-ARRRRQRVAFYFK-NH2; not fully specified (residue 13); also: homodimer via Ida linker on Lys13 side chain, Boc on Ida amine) [compound 370]” the IC50 [1] was less than 10 µM.

Compound “184 (XRRRRQRVRIIF; Xaa = Acylated Histidine; Dimeric peptide wherein the C terminus of Phe in position 12 of one peptide chain is covalently bound to one of the amino groups of a Lysine linker and Phe of the remaining peptide chain is covalently bound to the other amino group of the Lysine linker.) [compound 184]” has an IC50 [1] of less than 10 µM.

“262 (Ac-AR[dR]RRQRVAIIFK-NH2; not fully specified (residue 13); also: homodimer via Ida linker on Lys13 side chains) [compound 262]” showed an IC50 [1] of less than 10 µM.

For KTKRKRKKQRVEEIFVQNM [compound 31], the IC50 [1] was greater than 30 µM.

Work on “448 (Ac-RRRRRQAAAAAAK(Ida(4)); not fully specified (C-terminus); also: homodimer via Ida linker at K13) [compound 448]” yielded an IC50 [1] greater than 30 µM.

For “498 (Ac-PRSRRQAVAIYFK(Ida″); not fully specified (C-terminus); also: homodimer via Ida linker on Lys13 side chain) [compound 498]”, the IC50 [1] was less than 10 µM.

With “464 (Ac-ARRERQAVAIYFK(Ida(3)); not fully specified (C-terminus); also: homodimer via Ida linker on Lys side chains, linker at 13 via Ida, other end not in the chain) [compound 464]” the IC50 [1] was less than 10 µM.

Compound “497 (Ac-PRLRRQAVAIYFK(Ida″); not fully specified (C-terminus); also: homodimer via Ida linker on Lys13 side chain) [compound 497]” has an IC50 [1] of 10 to 30 µM.

“104 (Ac-KTKRKRKKQRVKIIFVQNM; also: homodimer via C-terminal Lys linker) [compound 104]” gave an IC50 [1] of less than 10 µM.

Compound “226 (Ac-ARRRRQRVAITFK; also: homodimer via Ida linker on side chain of Lys13) [compound 226]” has an IC50 [1] of less than 10 µM.

Work on KTKRKRVKIAYEEIFVQNM [compound 52] yielded an IC50 [1] greater than 30 µM.

With “320 (XRRRRQAVHIYFK; Xaa = Acylated Histidine; The side chain of Lysine at position 13 is covalently bound to an Ida linker forming a homodimer of residues 1 through 13.) [compound 320]” the IC50 [1] was less than 10 µM.

Work on “198 (Ac-RARARQRVRIIF; also: dimer: C-terminal Phe bound to an amino group of a Lys linker, 2 chains per Lys) [compound 198]” yielded an IC50 [1] of less than 10 µM.

Compound “287 (Ac-RRRRHQHVHIYFK-NH2; not fully specified (residue 13); also: homodimer via Ida linker on Lys13 side chain) [compound 287]” has an IC50 [1] of less than 10 µM.

Work on RKKQRVKIAYEEIFVQNM [compound 23] yielded an IC50 [1] of 10 to 30 µM.

“327 (XHRRRQHVRIYFK; not fully specified; Xaa = Acylated Histidine; The side chain of Lysine at position 13 is covalently bound to an Ida linker forming a homodimer of residues 1 through 13.) [compound 327]” was tested, and the IC50 [1] was less than 10 µM.

“272 (Ac-RARRRQAVAINFK-NH2; not fully specified (residue 13); also: homodimer via Ida linker on Lys13 side chain) [compound 272]” was tested, and the IC50 [1] was less than 10 µM.

With “174 (Ac-RARRRQRVRIIF; also: homodimer via C-terminal Lys linker) [compound 174]” the IC50 [1] was less than 10 µM.

With “506 (Ac-ARRRRQRVAIYFKGGRGDSP; also: homodimer via Ida linker at Lys13 side chain) [compound 506]” the IC50 [1] was less than 10 µM.

Work on “374 (Ac-ARRRRQRVA[Phg]YFK(Ida(3))-NH2; also: homodimer via Ida linker on Lys13 side chain, Boc on Ida amine) [compound 374]” yielded an IC50 [1] of less than 10 µM.
